From patent publication US20250197359A1, “CANNABINOID RECEPTOR MODULATING COMPOUNDS” (The U.S.A., as Represented by the Secretary, Department of …, priority 2022, published 2025)
Like-named read-outs stand apart in the source and are kept apart here.

Tests used:
CB1 = CB1 (UniProt P21554); test: CB1 radioligand binding assay; parameters: species or system human; details: read-out: Ki (CB1)
Method in brief: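 Radioligand binding to human CB1 stably expressed in CHO cells and to mouse brain membrane CB1 gave binding constants. For selected compounds, antagonism of CP55940-induced CB1 activation was measured in MPXNomad-CB1 HEK293 cells via cAMPNomad (cAMP) and ArresNomad (β-arrestin) fluorescent biosensors.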

[1] = Metabolic stability in human liver microsomes; assay type: in vitro ADME; details: human, liver microsomes; for half-life: read-out: t1/2, min
Caco-2 = Caco-2 permeability (A-B and B-A); assay type: in vitro ADME
[2] = Metabolic stability in mouse liver microsomes; assay type: in vitro ADME; details: for microsomal CLint / half-life: mouse, liver microsomes; for half-life: read-out: t1/2, min
Brain/CB1 = target: T1, Brain/CB1 (Mus musculus, UniProt P47746); test: Functional GTPγS binding, Brain/CB1; assay type: biochemical
T1 construct: from tissue; host or cells: mouse brain membranes

Cannabinoid receptor 1 [3] = target: T2, Cannabinoid receptor 1 (Homo sapiens, UniProt P21554); test: cAMP signaling, red cAMPNomad biosensor, MPXNomad-CB1 HEK293 cell line, antagonism of CP55940; assay type: cell-based; details: for reduction in the fluorescence intensity, cAMP assay: CP55940 3 μM
T2 construct: expressed in transfected cells; host or cells: MPXNomad-CB1 HEK293 cell line
Procedure: (§1) A number of these amino carboxamido adducts with a variety of side chains have been synthesized. This led to interesting CB1R binding affinities of the synthesized molecules. Several of these racemic (glycine, valine) or diastereomeric molecules have binding affinities in single digit nanomolar range (2 nM to 10 nM) obtained from radioligand binding assay. Furthermore, we investigated the antagonist effect of a few compounds to analyze their capability to modulate CBIR induced by CP55940 in the MPXNomad-CB1 HEK293 cell line. This cell line has been validated measuring cAMP signaling and ß-Arrestin mobilization analyzing the fluorescence intensity of the red cAMPNomad and the green ArresNomad biosensors.
(§2) The MPXNomad-CB1 cell line was used to test substances or examine their ability to interact with Cannabinoid receptor 1 where an agonist that binds to CB1 activates a G protein, which in turn causes CAMP to be released and a cellular response that is then internalized by ß-Arrestin. The assay determined the efficacy to block the activation of the CB1 receptor brought on by CP55940 in the MPXNomad-CB1 HEK293 cell line. AM251 1 μM and 3 µM was utilized as the positive control, CP55940 3 μM was used as the negative control, and vehicle (DMSO) served as the zero control. Treatment with CP55940 3 μM produced an increment in the fluorescence intensity of the red cAMPNomad and the green ArresNomad biosensors. […] Instead, the reduction was a 50%, 34% and 22% at 1 μM, 100 nM and 10 nM, respectively in the arrestin assay.

Cannabinoid receptor 1 [4] = target: T2, Cannabinoid receptor 1; test: β-Arrestin mobilization, green ArresNomad biosensor, MPXNomad-CB1 HEK293 cell line, antagonism of CP55940; assay type: cell-based; details: for reduction in the fluorescence intensity, arrestin assay: CP55940 3 μM
Procedure: as §1, §2

iNOS = iNOS (Mus musculus, UniProt P29477); test: Inducible NOS biochemical assay
Text: Biochemical assay results are presented as the percent inhibition of specific binding or activity (iNOS, CAMP, beta arrestin).

[5] = Caco-2 permeability (A-B and B-A); assay type: in vitro ADME; details: human; for efflux ratio: Caco-2, quotient of Papp(BA) to Papp(AB)
[6] = vs CP55940, MPXNomad-CB1 HEK293
[7] = Caco-2, mean, read-out: Papp (AB), 10^−6 cm/s, Mean
[8] = Caco-2, mean, read-out: Papp (BA), 10^−6 cm/s, Mean
[9] = Caco-2, replicate 1, read-out: Papp (AB), 10^−6 cm/s, 1
[10] = Caco-2, replicate 1, read-out: Papp (BA), 10^−6 cm/s, 1
[11] = Caco-2, replicate 2, read-out: Papp (AB), 10^−6 cm/s, 2
[12] = Caco-2, replicate 2, read-out: Papp (BA), 10^−6 cm/s, 2

T1 sequence (P47746 whole entry): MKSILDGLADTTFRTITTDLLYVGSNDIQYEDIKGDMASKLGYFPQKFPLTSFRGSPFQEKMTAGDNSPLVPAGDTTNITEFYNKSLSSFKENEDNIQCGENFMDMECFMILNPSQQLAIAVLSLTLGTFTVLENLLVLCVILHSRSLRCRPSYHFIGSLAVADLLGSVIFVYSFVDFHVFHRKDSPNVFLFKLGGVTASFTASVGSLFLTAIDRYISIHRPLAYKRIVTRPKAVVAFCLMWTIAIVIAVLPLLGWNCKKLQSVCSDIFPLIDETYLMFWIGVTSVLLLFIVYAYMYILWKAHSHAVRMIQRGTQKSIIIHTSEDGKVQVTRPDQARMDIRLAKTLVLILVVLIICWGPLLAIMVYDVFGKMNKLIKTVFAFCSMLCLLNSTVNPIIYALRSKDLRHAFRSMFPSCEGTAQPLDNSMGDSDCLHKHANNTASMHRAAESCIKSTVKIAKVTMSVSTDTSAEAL
T2 sequence (P21554 whole entry): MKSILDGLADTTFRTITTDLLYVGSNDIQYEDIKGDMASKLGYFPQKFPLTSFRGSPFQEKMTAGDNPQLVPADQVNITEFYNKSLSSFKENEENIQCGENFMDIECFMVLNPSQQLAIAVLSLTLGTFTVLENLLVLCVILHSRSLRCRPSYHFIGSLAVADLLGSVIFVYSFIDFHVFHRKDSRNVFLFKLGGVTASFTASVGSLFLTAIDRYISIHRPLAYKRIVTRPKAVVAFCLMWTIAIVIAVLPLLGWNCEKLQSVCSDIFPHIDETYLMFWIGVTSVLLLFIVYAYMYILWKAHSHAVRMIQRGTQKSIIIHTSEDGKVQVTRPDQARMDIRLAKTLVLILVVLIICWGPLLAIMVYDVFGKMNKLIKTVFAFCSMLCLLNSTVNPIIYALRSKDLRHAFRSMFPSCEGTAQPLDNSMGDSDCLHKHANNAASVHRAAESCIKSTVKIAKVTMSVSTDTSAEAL

Row | Ki (CB1) [nM] | microsomal CLint [1] [µL/min/mg] | half-life [1] [h] | t1/2, min [2] [h] | IC50 (Brain/CB1) [nM] | iNOS inhibition % Response (iNOS) [%] | Papp A→B [5, 7] [×10⁻⁶ cm/s] | Papp B→A [5, 8] [×10⁻⁶ cm/s] | Papp A→B [5, 9] [×10⁻⁶ cm/s] | Papp B→A [5, 10] [×10⁻⁶ cm/s] | Papp A→B [5, 11] [×10⁻⁶ cm/s] | Papp B→A [5, 12] [×10⁻⁶ cm/s] | efflux ratio [5] | microsomal CLint [2] [µL/min/mg] | half-life [2] [h] | also measured | Compound
1 | 13.2 | 23 | 1.22 | 0.118 | 389 | – | – | – | – | – | – | – | – | – | – | Papp (AB), 10^−6 cm/s, Mean (Caco-2; mean): 1.4 10^−6 cm/s; Papp (BA), 10^−6 cm/s, Mean (Caco-2; mean): 0.5 10^−6 cm/s; efflux ratio (Caco-2; quotient of Papp(BA) to Papp(AB)): 0.4; Papp (AB), 10^−6 cm/s, 1 (Caco-2; replicate 1): 1.4 10^−6 cm/s; Papp (BA), 10^−6 cm/s, 1 (Caco-2; replicate 1): 0.5 10^−6 cm/s; Papp (AB), 10^−6 cm/s, 2 (Caco-2; replicate 2): 1.4 10^−6 cm/s; Papp (BA), 10^−6 cm/s, 2 (Caco-2; replicate 2): 0.5 10^−6 cm/s; Clint [2]: 236 µL/min/mg | CC(C)C(N/C(=N/S(=O)(=O)c1ccc(C(F)(F)F)cc1)N1CCC(c2ccccc2)C(c2ccc(Cl)cc2)=N1)C(N)=O (single isomer, unassigned) [Compound 29a, (Z)-2-(3-(4-chlorophenyl)-4-phenyl-N′-((4-(trifluoromethyl)phenyl)sulfonyl)-1,4,5,6-tetrahydropyridazine-1-carboximidamido)-3-methylbutanamide]
2 | – | – | – | – | – | – | – | – | – | – | – | – | – | – | – | IC50 (Cannabinoid receptor 1 [3]; [6]): 0.804 nM; IC50 (Cannabinoid receptor 1 [4]; [6]): 0.227 nM | CC(C)C(N/C(=N/S(=O)(=O)c1ccc(C(F)(F)F)cc1)N1CCC(c2ccccc2)C(c2ccc(Cl)cc2)=N1)C(N)=O (centres unmarked) [2-(3-(4-chlorophenyl)-4-phenyl-N′-((4-(trifluoromethyl)phenyl)sulfonyl)-1,4,5,6-tetrahydropyridazine-1-carboximidamido)-3-methylbutanamide]
3 | 15 | 2 | 12.7 | – | 93 | 64 | 2.5 | 1.9 | 2.4 | 1.9 | 2.5 | 1.8 | 0.8 | 34 | 0.813 | reduction in the fluorescence intensity, cAMP assay (Cannabinoid receptor 1 [3]; 10 nM): ~19%; reduction in the fluorescence intensity, cAMP assay (Cannabinoid receptor 1 [3]; 100 nM): ~29%; reduction in the fluorescence intensity, cAMP assay (Cannabinoid receptor 1 [3]; 1 μM): ~47%; reduction in the fluorescence intensity, arrestin assay (Cannabinoid receptor 1 [4]; 10 nM): 22%; reduction in the fluorescence intensity, arrestin assay (Cannabinoid receptor 1 [4]; 100 nM): 34%; reduction in the fluorescence intensity, arrestin assay (Cannabinoid receptor 1 [4]; 1 μM): 50% | C/C(N)=N\C(=N\S(=O)(=O)c1ccc(C(F)(F)F)cc1)N1CCC(c2ccccc2)C(c2ccc(Cl)cc2)=N1 (centres unmarked) [Compound 10b, (Z)—N—((E)-1-aminoethylidene)-3-(4-chlorophenyl)-4-phenyl-N′-((4-(trifluoromethyl)phenyl)sulfonyl)-5,6-dihydropyridazine-1 (4H)-carboximidamide]
4 | 9.6 | 6 | 4.8 | 1.13 | 13 | 36 | 1.4 | 0.6 | 1.5 | 0.6 | 1.3 | 0.5 | 0.4 | 25 | 1.3 | – | N/C(=N\C(=N\S(=O)(=O)c1ccc(C(F)(F)F)cc1)N1CCC(c2ccccc2)C(c2ccc(Cl)cc2)=N1)c1ccc(F)cc1F (centres unmarked) [Compound 10p, (Z)—N—((Z)-amino (2,4-difluorophenyl)methylene)-3-(4-chlorophenyl)-4-phenyl-N′-((4-(trifluoromethyl)phenyl)sulfonyl)-5,6-dihydropyridazine-1 (4H)-carboximidamide]
